{"source": "patent US20120172650A1", "about": "“USE OF SO[…] AN ANALOGUE THEREOF IN COMBINATION WITH EXTERNAL RADIATION THERAPY” (priority 2009, published 2012)", "key": {"GH3 xenograft tumors": {"system": "GH3 xenograft tumors", "assay": "Mouse GH3 xenograft tumor model, tumor growth delay", "assay_type": "in vivo, nude mice", "protocol": "Male nude mice, 8 weeks old and 20-25 grams in body weight, were used in this study (Charles River Laboratories, Hollister, Calif.). Prior to experimentation the mice were tested and found to be negative for specific pathogens. The mice were maintained under specific-pathogen-free conditions and allowed to breed. Sterilized food and water were available ad libitum.\nTumors were initiated in the in the right flank of the mice by a subcutaneous injection of 5×10^6 tumor cells suspended in 100 μl of a 1:1 mixture of Hank's solution and Matrigel (BD Biosciences, San Jose, Calif.). Each mouse received one inoculation injection. When the tumors reached an average size of 120 mm^3 (80-200 mm^3), the mice were randomly assigned to different treatment groups with 5-8 mice in each group. Lanreotide was administered to each mouse via subcutaneous injection. […]\nLocal irradiation of individual tumors was carried out as follows. Unanesthetized tumor-bearing mice were placed in lead boxes, positioned so as to have the tumors protruding through a cut-out window at the rear of each box. The radiation dose was delivered using a Philips RT-250 200 kVp X-ray unit (12.5 mA; Half Value Layer, 1.0-mm Cu) at a dose rate of 138 cGy/min. The tumors were exposed to 150-250 cGy per fraction daily for 5 consecutive days as specified in each experiment.\n(§1) Tumor volume was calculated using the formula: tumor volume (mm^3)=π/6×length×width^2. The length and width of the tumors were measured with calipers before treatment and three times a week thereafter, until the tumor volume reached at least 4 times (4×) the pre-treatment volume. The tumor volume quadrupling (4×) time was determined by a best-fit regression analysis. The tumor growth delay (TGD) time (in days) is the difference between the tumor volume quadrupling time of treated tumors compared to the tumor volume quadrupling time of untreated control tumors. Both the tumor volume quadrupling time and tumor growth delay time were calculated for each individual animal and then averaged for each group. In some experiments, a complete response of tumors was recorded if a tumor shrunk to the point that it was not palpable at the end of the experiment. Body weight was measured twice a week."}, "[1]": {"assay": "Tolerability in GH3 tumor-bearing mice (body weight, appearance, activity)", "assay_type": "in vivo, nude mice", "protocol": "as §1"}, "GH3 cells [2]": {"system": "GH3 cells", "assay": "Apoptosis and cell cycle analysis by FACScan flow cytometry (propidium iodide)", "assay_type": "cell-based, rat", "conditions": "for apoptotic sub-G1 cells: 48 hours after 10 Gy radiation", "protocol": "Apoptosis and cell cycle distribution was analyzed using a FACScan flow cytometer (BD Biosciences, San Jose, Calif.). The level of apoptosis was quantified by measuring the number of sub-diploid (sub-G1) cells. Briefly, GH3 cells were plated in 60 mm dishes at a density of approximately 500,000 cells/dish and treated with lanreotide and gamma irradiation. Approximately 48 to 168 hours after exposure, the cells were collected and washed with cold PBS supplemented with 5 mM EDTA. Cells were re-suspended in cold PBS-EDTA solution and fixed with cold 100% ethanol. After incubation for 30 minutes at room temperature, the cells were centrifuged and the pellet of cells was treated with 100 μg/ml of RNase A in a PBS-EDTA solution for 30 minutes at room temperature. Propidium iodide (PI) was added to a final concentration of 50 μg/ml and the DNA content was analyzed with a FACScan flow cytometer (BD Biosciences, San Jose, Calif.). The percentage of cells in the apoptotic sub-G1, G1, S, and G2/M phases was calculated.\nGH3 cells were placed in 60 mm Petri dishes at a concentration of approximately 500,000 cells/dish and allowed to grow overnight. Lanreotide at 100 nM was added at 48 hours, 24 hours or immediately (0 hours) before irradiation. Cells were irradiated with 10 Gy gamma radiation at room temperature and collected 48, 72, 96 and 168 hours after exposure.\nThe DNA content of the cells was analyzed using a FACScan and the percentages of cells in the apoptotic sub-G1, G1, S and G2/M phases were calculated. […] The percentage of cells in sub-G1, G1, S and G2/M phases at 48 hours was 1.4±0.2%, 73.2±1.0%, 8.4±1.0% and 16.9±1.8%, respectively."}, "GH3 cells [3]": {"system": "GH3 cells", "assay_type": "cell-based, rat", "conditions": "for surviving fraction at 10 Gy: 100 nM lanreotide, plus 10 Gy radiation (radiation alone 0.0006); for cell survival rate (colony forming units): 21 days", "source_text": "Currently, there are no human pituitary GH-secreting cell lines that can be maintained in a differentiated state in vitro for sufficient time for colony formation assessment (Danila, D. C. et al., J. Clin. Endocrinol. Metab., 2001, 86:2976-8; Danila, D. C. et al., J. Clin. Endocrinol. Metab., 2000, 85:1180-7). As such, a rat GH3 pituitary tumor cell line was purchased from ATCC. The GH3 cells were maintained in DMED/F-12 medium (Gibco BRL, Grand Island, N.Y.) supplemented with 10% fetal calf serum, 100 units/ml penicillin and 100 μg/ml streptomycin in a 37° C. humidified incubator with a mixture of 95% air and 5% CO2. All experiments were performed on exponentially growing cells with a doubling time of approximately 30 hours.\nGH3 cells were detached from the cell culture support using a 0.05% trypsin-EDTA solution. The collected cells were counted, diluted in fresh growth medium and plated in triplicate in 60 mm Petri dishes (BD Biosciences, San Jose, Calif.) at dilutions of approximately 100-100,000 cells/dish. Lanreotide (Biomeasure, Inc., Milford, Mass., USA) was added to the diluted cells at final concentrations of 1-1000 nM. The cells were irradiated with 0-10 Gy at room temperature using a ^137Cs source with a dose rate of 300 cGy/min. Following exposure to lanreotide or gamma irradiation, the media was drained from the dish, the cells were washed twice with PBS (phosphate buffered saline) solution and the plates were filled with fresh growth medium. After incubation at 37° C. for 21 days, the cells were stained with 0.25% crystal violet. Colonies containing ≧50 cells were counted under a dissecting microscope and survival curves were generated. The plating efficiency (PE) was calculated as the percentage of cells plated that grew into colonies. The surviving fraction (SF) was defined as the fraction of cells surviving, i.e. number of colonies/(number of […]×PE).\nGH3 cells were plated in 60 mm tissue culture dishes and incubated overnight prior to treatment with the somatostatin agonist analog. Lanreotide was added to the cells to a final concentration of 1-1000 nM. After a 21 day incubation period in the presence of lanreotide the cells were stained and colonies with >50 cells were counted.\nGH3 cells were plated in tissue culture dishes and allowed to incubate overnight prior to treatment. At 48, 24 or 0 hours before radiation exposure, lanreotide was added to the cells at a final concentration of 100 nM or 1000 nM. At 48, 24 or 0 hours after the addition of the lanreotide, the GH3 cells were irradiated with 0-10 Gy at room temperature with a Cs-137 gamma irradiator. Following irradiation, cells with 24-hour or 0-hour pre-exposure to lanreotide were incubated in lanreotide-containing media for an additional 24 or 48 hours, respectively. After a total of 48-hour exposure, lanreotide-containing media was removed from the plates, the cells washed twice with PBS solution and fresh growth media added to the cells. Cells that were irradiated without exposure to lanreotide were also washed twice with PBS and supplied with fresh media. The cells were incubated for 21 days for colony formation."}}, "note": "Where two headings read alike, the source gives them in different places.", "data": [{"compound": "CC(C)[C@@H]1NC(=O)[C@H](CCCCN)NC(=O)[C@@H](Cc2c[nH]c3ccccc23)NC(=O)[C@H](Cc2ccc(O)cc2)NC(=O)[C@@H](NC(=O)[C@H](N)Cc2ccc3ccccc3c2)CSSC[C@@H](C(=O)N[C@H](C(N)=O)[C@@H](C)O)NC1=O", "note": "[lanreotide, D-2-Nal-Cys-Tyr-D-Trp-Lys-Val-Cys-Thr-NH2]", "values": [{"measurement": "tumor growth delay time, pre-administration plus radiation", "setting": "GH3 xenograft tumors; 10 mg/kg lanreotide 5 days, then lanreotide plus 150 cGy daily for 5 days (radiation alone 15.5±8.8 days)", "result": "15.1 ± 8.6", "unit": "days"}, {"measurement": "once daily vs twice daily dosing in reducing tumor growth", "setting": "GH3 xenograft tumors; 2.5, 5 or 10 mg/kg s.c. qd or bid for 5 days, p=0.3-0.9", "result": "lanreotide delivered once a day was as effective as lanreotide delivered twice daily"}, {"measurement": "tumor growth 4× delay", "setting": "GH3 xenograft tumors; dose response study, 10 mg/kg s.c. daily for 5 days (optimal dose, bell-shaped curve)", "result": "13.1 ± 4.7", "unit": "days"}, {"measurement": "complete tumor regression", "setting": "GH3 xenograft tumors; irradiation and combination therapy groups, study terminated after 60 days", "result": "Two mice from the irradiation and combination therapy groups exhibited complete tumor regression"}, {"measurement": "4×TGD", "setting": "GH3 xenograft tumors; lanreotide alone 10 mg/kg daily for 10 days, p=0.06 vs. control", "result": "8.3 ± 8.3", "unit": "days"}, {"measurement": "tumor growth 4× delay", "setting": "GH3 xenograft tumors; regimen comparison, 5 mg/kg twice daily for 5 days", "result": "1.1 ± 3.1", "unit": "days"}, {"measurement": "tumor growth 4× delay", "setting": "GH3 xenograft tumors; regimen comparison, 10 mg/kg once daily for 5 days", "result": "4.9 ± 2.1", "unit": "days"}, {"measurement": "signs of systemic toxicity (general appearance, skin reaction, body weight, activity)", "setting": "[1]; 10 mg/kg for 10 days alone and in combination with 150 cGy external radiation", "result": "did not result in any obvious signs of systemic toxicity"}, {"measurement": "animal body weight, combination vs fractionated radiation alone", "setting": "[1]; 10 mg/kg lanreotide plus 150-250 cGy/fraction for 5 days", "result": "did not cause any further decrease in animal body weight"}, {"measurement": "general appearance and daily activity", "setting": "[1]; 2.5-50 mg/kg daily for 5 days", "result": "no notable change"}, {"measurement": "body weight compared to untreated control mice", "setting": "[1]; 2.5-50 mg/kg daily for 5 days, all doses tested", "result": "did not cause significant decrease in body weight"}, {"measurement": "percentage of cells in sub-G1 phase", "setting": "GH3 cells [2]; 100 nM lanreotide alone (control 1.4±0.2% at 48 hours)", "result": "2.28±0.3", "unit": "%"}, {"measurement": "percentage of cells in S phase", "setting": "GH3 cells [2]; 100 nM lanreotide alone (control 8.4±1.0%)", "result": "7.72±0.8", "unit": "%"}, {"measurement": "percentage of cells in G2/M phase", "setting": "GH3 cells [2]; 100 nM lanreotide alone (control 16.9±1.8%)", "result": "16.2±0.5", "unit": "%"}, {"measurement": "percentage of cells in G1 phase", "setting": "GH3 cells [2]; 100 nM lanreotide alone (control 73.2±1.0%)", "result": "73.8±1.1", "unit": "%"}, {"measurement": "apoptotic sub-G1 cells", "setting": "GH3 cells [2]; 100 nM lanreotide 0 hours pre-exposure (radiation alone 4.9%)", "result": 13.4, "unit": "%"}, {"measurement": "apoptotic sub-G1 cells", "setting": "GH3 cells [2]; 100 nM lanreotide 24 hours pre-exposure (radiation alone 4.9%)", "result": 9.3, "unit": "%"}, {"measurement": "apoptotic sub-G1 cells", "setting": "GH3 cells [2]; 100 nM lanreotide 48 hours pre-exposure (radiation alone 4.9%)", "result": 8.6, "unit": "%"}, {"measurement": "sub-G1 cell fraction", "setting": "GH3 cells [2]; 168 hours after 10 Gy radiation, radiation plus 100 nM lanreotide (radiation alone 12%)", "result": "20-22%"}, {"measurement": "surviving fraction at 10 Gy", "setting": "GH3 cells [3]; 0 hour pre-exposure", "result": 0.00042}, {"measurement": "surviving fraction at 10 Gy", "setting": "GH3 cells [3]; 24 hours pre-exposure", "result": 0.0004}, {"measurement": "surviving fraction at 10 Gy", "setting": "GH3 cells [3]; 48 hours pre-exposure", "result": 0.00022}, {"measurement": "effect on radiation survival curves", "setting": "GH3 cells [3]; 1000 nM lanreotide for 48 hours with 0-10 Gy radiation", "result": "did not alter the shape and slopes of the radiation survival curves"}, {"measurement": "IC50", "setting": "GH3 cells [3]; GH3 cells, 21 day incubation in the presence of lanreotide, read-out: IC50 (50% inhibition of cell growth), colony formation", "result": 57, "unit": "nM"}, {"measurement": "cell survival rate (colony forming units)", "setting": "GH3 cells [3]; lanreotide 1 nM", "result": 75, "unit": "%"}, {"measurement": "cell survival rate (colony forming units)", "setting": "GH3 cells [3]; lanreotide 10 nM", "result": 56, "unit": "%"}, {"measurement": "cell survival rate (colony forming units)", "setting": "GH3 cells [3]; lanreotide 100 nM", "result": 39, "unit": "%"}, {"measurement": "cell survival rate (colony forming units)", "setting": "GH3 cells [3]; lanreotide 1000 nM", "result": 27, "unit": "%"}, {"measurement": "reduction of clonogenic survival compared with untreated controls", "setting": "GH3 cells [3]; lanreotide alone 100 nM or 1000 nM for 48 hours, without radiation", "result": "5-10%"}]}]}
